In patent US9579344B2, “Use of nitrite salts in treating tissue damage” (Board of Supervisors of Louisiana State University and …, priority 2009, dated 2017):
Where two headings read alike, the source gives them in different places.

Columns and labels:
[1] = system: ischemic tissue gene expression
Method: (§1) Hind limb ischemia was induced by ligating the left common femoral artery proximal to origin of profunda femoris artery according to Senthilkumar, A., Smith, R. D., Khitha, J., Arora, N., Veerareddy, S., Langston, W., Chidlow, 1H., Jr., Barlow, S. c., Teng, x., Patel, R. P., et al. 2007. Arterioscler Thromb Vasc Biol 27: 1947-1954. Mice were anesthetized with intraperitoneal injection of ketamine (100 mglkg) and xylazine (8 mglkg); surgery was performed under aseptic conditions. The common femoral vein and femoral nerve were dissected away from the artery. Two ligatures were placed in the common femoral artery proximal to the profunda femoris artery and then transected between the two ligations. The incision was then closed and the ligation was immediately verified by laser Doppler measurement of tissue blood flow.
RNA integrity was checked using the Agilent 2100 Bioanalyzer (Agilent Technologies, Palo Alto, Calif.). […] Double stranded cDNA was synthesized from 5 ug total RNA using a Superscript cDNA synthesis Kit (Invitrogen, Carlsbad, Calif.) and purified using the Gene Chip Sample Cleanup Module (Affymetrix, Santa Vlara, Calif.). After biotin-labeling, the cDNA were fragmented at 94° C. and hybridized to the GeneChip® Mouse Genome 430 2.0 Array (Affymetrix), which contains 39,000 fully annotated transcripts of the mouse genome. After washing and staining, the arrays were scanned using GeneChip Scanner 3000 (Affymetrix) and hybridization efficiency determined by housekeeping control and spike control probe sets.
Array data were globally scaled to a target intensity value of 500 to compare individual array experiments. To determine differentially expressed genes between PBS and nitrite treatment, data were log transformed and uploaded into Genesifter program (www.genesifter.net). Identification of significant changes in gene expression were determined using a pair-wise comparison of PBS versus nitrite therapy gene array data at each individual time point with the following criteria: a minimal 2-fold difference in expression with no maximal threshold limit, a hybridization quality cutoff of 1, and an unpaired student t-test between treatment groups followed by Benjamini and Hochberg post test to limit false discovery rates.
The resulting output of network analysis was broken down according to the genetic composition of networks, the biological function of the networks, the number of interrelated network relationships, as well as statistical analysis of individual networks.
Induction of chronic hind limb ischemia was performed according to the method in Example 1. […] Nitrite doses were given once in the morning (8 am) and a second in the afternoon (5 pm) with muscle tissue harvested on the morning of the 4th and 8th days (to give an entire 3 and 7 day period for study). Four muscle specimens from individual mice were harvested per treatment cohort per time point for a total of 16 individual specimens for gene array analysis. Harvested tissue was immediately frozen in liquid nitrogen for subsequent total RNA isolation. Laser doppler blood flow measurements were taken from non-ischemic and ischemic hind limbs prior to tissue collection to determine the amount of ischemic tissue perfusion using a Vasamedics Laserflo BPM2 deep tissue penetrating doppler device. Percent restoration of blood flow was determined by dividing the ischemic hind limb blood flow by the non-ischemic hind limb blood flow and multiplying by 100. Statistical analysis of changes in tissue blood flow between treatment groups at specific time points were performed with an unpaired students t-test using Prism software (Graphpad).

[2] = system: coronary artery endothelial cells, umbilical vein endothelial cells
Method: (§2) A contained hypoxia tissue culture system was used allowing the long term culturing of cells in hypoxia (24 hrs). A fluorescent plate reader in hypoxic chamber measured NO formation using the fluorescent dye DAF-FM.
(§3) The effect of specific inhibitors of NO production, carboxy PTIO (2-(4-Carboxyphenyl)-4,4,5,5-tetramethylimidazoline-1-oxyl-3-oxide), allopurinol and L-NAME, was also analyzed. […] Results for iliac vein smooth muscle cells are shown in FIGS. 7A, 7B and 8; results for aortic smooth muscle cells are shown in FIGS. 9A, 9B and 10; results for coronary artery cells are shown in FIGS. 11A, 11B and 12, results for umbillical vein cells are shown in FIGS. 13A, 13B and 14.

[3] = system: iliac vein smooth muscle cells, aortic smooth muscle cells
Method: as §2, §3

cultured cells = details: hypoxic and normoxic conditions, 100 nM or 1 uM sodium nitrite (FIG. 16)
Method: FIG. 16 depicts the chemiluminescent detection of nitrite/nitric oxide during hypoxia.
as §3

[4] = system: ischemic hind limb of B6.BKS-Lepr^db/db diabetic mice; details: aged diabetic mice, 165 ug/kg
Source text: (§4) B6.BKS-Lepr^db/db diabetic mice were purchased from Jackson's laboratory and housed in the animal center of LSU Health Sciences Center for 6 months. Surgical hind limb ischemia was created in 9 month-old male (Db/Db) type-2 diabetic mice. The mice were anesthetized by isoflurane inhalation and the left groin area was shaved and naired. The left external iliac artery and vein, left femoral artery and vein, left saphenous artery and vein and deep femoral and circumflex arteries and veins were ligated, cut, and excised to obtain a mouse model of critical hind limb ischemia. […] All treatments were performed in a double-blinded manner.
Laser Doppler blood flows were measured using a Vasamedics Laserflo BPM2 device in the gastrocnemius pre-ligation, post-ligation and on days 1, 3, 5, 7, 9, 11, 13, 15, 17, 19 and 21 post-ligation. Blood vessels visible through the skin were avoided to ensure readings indicative of muscle blood flow. Measurements were recorded as milliliter of blood flow per 100 grams of tissue per minute. Percent blood flows were calculated as: a/b××100 where a=ischemic limb average flow and b=non-ischemic limb average flow.

[5] = aged diabetic mice
Source text: as §4
Blood glucose measurements were taken using Ascensia Elite blood glucose test strips and a Bayer Glucometer Elite.
Plasma total cholesterol and LDL levels were determined using a Siemens Vista Clinical Chemistry analyzer.

[6] = system: gastrocnemius muscles of aged diabetic mice; details: non-ischemic tissues of aged diabetic mice (FIG. 21B)
Source text: as §4
The gastrocnemius muscles from ischemic and non-ischemic hind limbs were removed, dissected, and embedded in OCT freezing medium. Frozen tissue blocks were cut into 5 μm sections and slides prepared. A primary antibody against PECAM-1 was added at a 1:200 dilution along with anti-Ki67 (1:350 dilutions) and incubated at 37° C. for 1 hour. Slides were then washed and a Cy3 conjugated secondary antibody was added at a 1:250 dilution along with anti-rabbit Ig antibody at a 1:150 dilution and incubated at room temperature for 1 hour. Slides were once again washed and mounted with cover slips using Vectashield DAPI. […] Cellular proliferation was determined as the ratio between regions positive for Ki67 and DAPI positive area.

[7] = system: ischemic hindlimbs of aged diabetic mice; details: PBS controls showed extensive necrosis and digit loss
Source text: as §4

[8] = system: ischemic hindlimbs of C57Bl/6J mice; details: fluorescence angiograms, 4 seconds blush time, vs PBS
Method: as §1

C2C12 myoblasts = system: C2C12 myoblasts
Source text: as §2

C2C12 myoblast cells = details: hypoxic conditions
[9] = cardiovascular development and function, skeletal muscle development, tissue development
[10] = cellular assembly and organization, carbohydrate metabolism, molecular transport
[11] = day 3, 165 μg/kg twice daily i.p., vs PBS
[12] = day 3, Ingenuity network analysis
[13] = day 7, 165 μg/kg twice daily i.p., vs PBS
[14] = inflammatory response, neurological disease, cellular development

O=NO [sodium nitrite]
genes enhanced, FIG. 2 network ([1]; antigen presentation, cell mediated immunity, humoral mediated immunity): calsequestrin 2, GST alpha 5, and solute carrier family member 25
genes inhibited, FIG. 6 network ([1]; cancer, nervous system development and function, tissue morphology): glycerol-3-phosphate dehydrogenase and protein phosphatase 2, reg subunit B
genes enhanced, FIG. 3 network [1, 9]: CXCR6, VE-cadherin, DIX domain containing 1, myosin, heavy chain 2, myosin, light chain 2, myosin, light chain 4, myosin, light chain 9, P2rY2, paired like homeodomain 2, troponin C, type 1, troponin T, type 2 and vitronectin
genes inhibited, FIG. 3 network [1, 9]: Rho Gtpase activating protein 17, CCR5, CXCL12, CXCL7, formin binding protein 1, G protein coupled receptor 65, 5-HT receptor 2B, serine/threonine kinase 17b and thrombospondin 2
genes enhanced, FIG. 1 network ([1]; cardiovascular system development and function, tissue morphology, carbohydrate metabolism): flavin containing monoxygenase 5, smoothelin like 1, mysoin heavy chain 7, CUB zona pellucida like domains 1 and small proline rich protein 1A
genes enhanced, FIG. 4 network [1, 10]: cyclin M4, EH domain containing 2, myosin heavy chain 7, myosin light chain 9 regulatory, popeye domain containing 2 and TEA domain family member 4
genes inhibited, FIG. 4 network [1, 10]: adipose differentiated-related protein, chitinase 3-like 3, kinesin family member 20B, leukocyte specific transcript 1, RNA binding motif protein 47 and sorting nexin 6
genes down-regulated [1, 11]: 346 genes
genes up-regulated [1, 11]: 111 genes
expression of genes associated with innate and acquired immune responses (FIG. 1) [1, 12]: inhibited
expression of genes involved in antigen presentation, cell mediated immunity, and humoral mediated immunity (FIG. 2) [1, 12]: altered
expression of genes involved in cardiovascular development and function, skeletal muscle development, and tissue development (FIG. 3) [1, 12]: altered
expression of genes involved in cardiovascular system development and function, tissue morphology, and carbohydrate metabolism (FIG. 1) [1, 12]: enhanced
expression of genes involved in cellular assembly and organization, carbohydrate metabolism and molecular transport (FIG. 4) [1, 12]: altered
expression of genes involved in inflammatory response, neurological disease and cellular development (FIG. 5) [1, 12]: altered
distinct gene expression profiles significantly altered ([1]; day 3 of ischemia, 165 μg/kg twice daily i.p., vs PBS, minimal 2-fold difference): 457
expression of genes associated with tissue remodeling ([1]; day 7): enhanced
genes down-regulated [1, 13]: 55 genes
genes up-regulated [1, 13]: 219 genes
expression of genes involved in cancer, nervous system development and function and tissue morphology (FIG. 6) ([1]; day 7, Ingenuity network analysis): altered
genes with differentially impacted expression profile ([1]; day 7 of ischemia, 165 μg/kg twice daily i.p., vs PBS): 274 genes
genes enhanced, FIG. 5 network [1, 14]: glycogen syntase 1 (muscle), kin of IRRE like 3, solute carrier family 16, member 3, solute carrier family 8, member 3 and uridine-cytidine kinase 2
genes inhibited, FIG. 5 network [1, 14]: C-type lectin domain family 5, A, FERM domain containing 4B, receptor (G protein coupled) activity modifying protein 2, signal-regulatory protein beta 1, solute carrier family 15, member 3 and zinc finger E-box binding homeobox 2
myogenin mRNA levels ([1]; ischemic mouse hindlimb gastrocnemius muscle, nitrite-treated animals (FIG. 25A)): significantly increased
nitrite reduction to NO, concentration dependence [2]: reduced nitrite to NO at lower concentrations of exogenous nitrite
nitrite reduction to NO ([2]; hypoxic conditions (1% oxygen)): reduced nitrite to NO
DAF fluorescence (NO formation) ([3]; higher concentrations of exogenous nitrite required): large increases in DAF fluorescence
nitrite reduction to NO ([3]; hypoxic conditions (1% oxygen)): reduced nitrite to NO
intracellular NO levels (cultured cells): lower concentrations, but not higher concentrations, of sodium nitrite resulted in a significant increase
blood flow in ischemic hind limbs compared with PBS-treated control animals ([4]; all time points analyzed): significantly greater
blood flow in ischemic hind limbs relative to preligation ([4]; by the end of the study): approached preligation levels
ischemic hind-limb blood flow ([4]; treatment delayed to five days after surgery): restored
body weight ([5]; delayed chronic treatment (FIG. 18A)): did not alter
blood glucose levels ([5]; delayed chronic treatment (FIG. 18B)): did not alter
serum cholesterol ([5]; delayed chronic treatment (FIG. 19A)): significantly decreased
serum LDL ([5]; delayed chronic treatment (FIG. 19B)): significantly decreased
epithelial cell proliferation [6]: but not non-ischemic tissues
digit loss [7]: no digit loss
necrosis [7]: minimal necrosis
arteriogenesis [8]: significantly increased
levels of NO (C2C12 myoblasts; 0.01 uM sodium nitrite, only in hypoxic conditions (FIG. 24B)): significantly increased
NO levels (C2C12 myoblasts; 100 uM sodium nitrite (FIG. 24A)): did not alter
myogenin mRNA (C2C12 myoblast cells; decreasing levels of sodium nitrite, inversely correlated with nitrite concentration): dose-dependent increase
levels of myogenin mRNA (C2C12 myoblast cells; lowest dose 0.01 uM sodium nitrite): highest
